Among the test systems are M14 melanoma; SK-MEL-2 melanoma; UACC-62 melanoma; K-562 leukemia; HCT-116 colon; HS 578T breast; MDA-MB-435; NCI/ADR-RES ovarian; T-47D breast; ACHN renal.
Assay in all cases: growth of human tumour cells (NCI), 48 h

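Cells were grown in 96-well plates and exposed to each compound for 48 hours at five concentrations; endpoints were interpolated linearly between bracketing concentrations, or set to the highest concentration if not reached. Abbreviation: GI50, concentration required for 50% inhibition of growth. TGI marks complete inhibition of growth.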 Where only a bound is given, the exact number is not on record here.

`Cn1c(/C=C(\C#N)c2ccccc2)nc2c(N3CCOCC3)nc(Cl)nc21`: the GI50 is 0.844 µM in the assay with M14 melanoma; 1.62 µM in the assay on SK-MEL-2 melanoma; 1.19 µM with UACC-62 melanoma; 0.348 µM with K-562 leukemia; 0.178 µM in the assay with HCT-116 colon; 1.69 µM in the assay on HS 578T breast. The GI50 in the assay on MDA-MB-435 is 1.3 µM; with NCI/ADR-RES ovarian, 1.98 µM; in the assay with T-47D breast, 1.23 µM; with ACHN renal, 0.458 µM. For the same molecule, the TGI in the assay on M14 melanoma worked out at 2.26 µM; in the assay on SK-MEL-2 melanoma, 3.18 µM; in the assay with UACC-62 melanoma, 2.52 µM; with K-562 leukemia it was 3.46 µM; in the assay with HCT-116 colon it was 0.432 µM; in the assay on HS 578T breast, 5.64 µM. Further, the TGI in the assay on MDA-MB-435 is 2.78 µM; in the assay on NCI/ADR-RES ovarian, 7.23 µM; in the assay on T-47D breast, 3.75 µM; with ACHN renal, 1.59 µM.
Take `COC1CC2CCC(C)C(O)(O2)C(=O)C(=O)N2CCCCC2C(=O)OC(C(C)CC2CCC(O)C(OC)C2)CC(=O)C(C)C=C(C)C(O)C(OC)C(=O)C(C)CC(C)/C=C/C=C/C=C1C` (stereo not given): the GI50 in the assay with M14 melanoma was 5.41 µM; in the assay with SK-MEL-2 melanoma it was 5.19 µM; in the assay with UACC-62 melanoma it was 0.0265 µM; with K-562 leukemia, 4.94 µM; in the assay with HCT-116 colon it was 4.34 µM; in the assay with HS 578T breast, 0.00742 µM. For the same molecule, the GI50 in the assay on MDA-MB-435 is 0.838 µM; with NCI/ADR-RES ovarian, 1.86 µM; with T-47D breast, < 0.005 µM; with ACHN renal, 2.55 µM. In addition, the TGI in the assay with M14 melanoma was 13.3 µM; in the assay with SK-MEL-2 melanoma it was 12.3 µM; in the assay on UACC-62 melanoma, 11.6 µM; with K-562 leukemia, 32.3 µM; in the assay on HCT-116 colon, 11.3 µM; with HS 578T breast, 24.4 µM. Besides, the TGI was found to be 14.9 µM in the assay on MDA-MB-435, 30.3 µM in the assay with NCI/ADR-RES ovarian, 20.9 µM in the assay on T-47D breast and 21.1 µM in the assay on ACHN renal.
In the case of `Ic1ccccc1-c1ccccc1`, the GI50 in the assay on M14 melanoma is > 100 µM; in the assay on SK-MEL-2 melanoma, 76 µM; in the assay with UACC-62 melanoma, 46.7 µM; in the assay with K-562 leukemia, > 100 µM; with HCT-116 colon, 94.9 µM; in the assay on HS 578T breast it was > 100 µM. Besides, the GI50 with MDA-MB-435 is > 100 µM; in the assay with NCI/ADR-RES ovarian, > 100 µM; with T-47D breast, 70.5 µM; in the assay on ACHN renal, > 100 µM. The TGI with M14 melanoma, in the assay on SK-MEL-2 melanoma, in the assay on UACC-62 melanoma, in the assay with K-562 leukemia, in the assay with HCT-116 colon and in the assay with HS 578T breast was > 100 µM each time. Also, the TGI in the assay on MDA-MB-435, in the assay with NCI/ADR-RES ovarian, in the assay with T-47D breast and in the assay with ACHN renal was > 100 µM throughout.
`O=C1NC(O)C(c2c[nH]c3ccccc23)=C1c1c[nH]c2ccccc12` (stereo not given): the GI50 in the assay with M14 melanoma is > 25 µM; in the assay on SK-MEL-2 melanoma it was > 25 µM; in the assay with UACC-62 melanoma, 8.01 µM; in the assay with K-562 leukemia, > 21.9 µM; in the assay on HCT-116 colon, > 25 µM; in the assay with HS 578T breast, 25 µM. The GI50 in the assay on MDA-MB-435, with NCI/ADR-RES ovarian, with T-47D breast and in the assay on ACHN renal was > 25 µM each time. Also, the TGI with M14 melanoma, in the assay on SK-MEL-2 melanoma, in the assay with UACC-62 melanoma, in the assay on K-562 leukemia, with HCT-116 colon and in the assay on HS 578T breast was > 25 µM in each case. Also, the TGI with MDA-MB-435, in the assay on NCI/ADR-RES ovarian, in the assay on T-47D breast and with ACHN renal was > 25 µM each time.
For the molecule `C=C(CN1C(=O)[C@H]2CCCN2C(=O)c2ccccc21)c1ccc(C(=O)O)cc1`, the GI50 with M14 melanoma, with SK-MEL-2 melanoma, with UACC-62 melanoma, with K-562 leukemia, in the assay on HCT-116 colon and with HS 578T breast was > 100 µM throughout. Also, the GI50 in the assay with MDA-MB-435, with NCI/ADR-RES ovarian, in the assay on T-47D breast and in the assay with ACHN renal was > 100 µM throughout. Also, the TGI in the assay on M14 melanoma, in the assay on SK-MEL-2 melanoma, with UACC-62 melanoma, in the assay with K-562 leukemia, with HCT-116 colon and with HS 578T breast was > 100 µM each time. Further, the TGI with MDA-MB-435, with NCI/ADR-RES ovarian, in the assay on T-47D breast and in the assay on ACHN renal was > 100 µM each time.
